According to patent US8192962B2, “Processes for detecting toxic substances” (Daikin Industries, Ltd., priority 2001, dated 2012):

System: Energy system protein genes
Test: DNA chip mRNA expression in yeast, energy system protein genes (Table 4)
Format: cell-based, Saccharomyces cerevisiae S288C
Summary of the method: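 Value is the scanned fluorescence intensity ratio of exposed versus chemical-free cells. Log-phase S288C yeast in YPD at 25° C. received one toxic substance for two hours, dosed to slow growth without killing; Cy3/Cy5-labeled cDNA from oligo-dT-purified mRNA was hybridized to a whole-genome chip at 65° C.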

## S=C([S-])NCCNC(=S)[S-].[Zn+2] [(11), zinc N,N′-ethylenebis(dithiocarbamate)]
Yeast gene YJL166W, cells incubated two hours with the chemical substance
  The level of expressed mRNA in the presence of chemical substance/The level of expressed mRNA in the absence of chemical substance: 1.4
Yeast gene YJL216C, cells incubated two hours with the chemical substance
  The level of expressed mRNA in the presence of chemical substance/The level of expressed mRNA in the absence of chemical substance: 1.1
Yeast gene YJR009C
  The level of expressed mRNA in the presence of chemical substance/The level of expressed mRNA in the absence of chemical substance: 1.1
Yeast gene YJR048W
  The level of expressed mRNA in the presence of chemical substance/The level of expressed mRNA in the absence of chemical substance: 1.0
Yeast gene YJR121W, cells incubated two hours with the chemical substance
  The level of expressed mRNA in the presence of chemical substance/The level of expressed mRNA in the absence of chemical substance: 0.9
Yeast gene YJR155W
  The level of expressed mRNA in the presence of chemical substance/The level of expressed mRNA in the absence of chemical substance: 15.4
Yeast gene YKL016C, cells incubated two hours with the chemical substance
  The level of expressed mRNA in the presence of chemical substance/The level of expressed mRNA in the absence of chemical substance: 1.3
Yeast gene YKL060C, cells incubated two hours with the chemical substance
  The level of expressed mRNA in the presence of chemical substance/The level of expressed mRNA in the absence of chemical substance: 2.1
Yeast gene YKL141W, cells incubated two hours with the chemical substance
  The level of expressed mRNA in the presence of chemical substance/The level of expressed mRNA in the absence of chemical substance: 1.2
Yeast gene YKL148C, cells incubated two hours with the chemical substance
  The level of expressed mRNA in the presence of chemical substance/The level of expressed mRNA in the absence of chemical substance: 1.5
Yeast gene YKR009C, cells incubated two hours with the chemical substance
  The level of expressed mRNA in the presence of chemical substance/The level of expressed mRNA in the absence of chemical substance: 1.2
Yeast gene YKR058W, cells incubated two hours with the chemical substance, 25° C., YPD medium
  The level of expressed mRNA in the presence of chemical substance/The level of expressed mRNA in the absence of chemical substance: 1.5
Yeast gene YKR097W
  The level of expressed mRNA in the presence of chemical substance/The level of expressed mRNA in the absence of chemical substance: 0.8
Yeast gene YLL041C, cells incubated two hours with the chemical substance
  The level of expressed mRNA in the presence of chemical substance/The level of expressed mRNA in the absence of chemical substance: 1.3
Yeast gene YLR038C, cells incubated two hours with the chemical substance
  The level of expressed mRNA in the presence of chemical substance/The level of expressed mRNA in the absence of chemical substance: 1.4
Yeast gene YLR044C, cells incubated two hours with the chemical substance
  The level of expressed mRNA in the presence of chemical substance/The level of expressed mRNA in the absence of chemical substance: 1.1
Yeast gene YLR134W, cells incubated two hours with the chemical substance
  The level of expressed mRNA in the presence of chemical substance/The level of expressed mRNA in the absence of chemical substance: 1.1
Yeast gene YLR258W, cells incubated two hours with the chemical substance
  The level of expressed mRNA in the presence of chemical substance/The level of expressed mRNA in the absence of chemical substance: 1.2
Yeast gene YLR284C, cells incubated two hours with the chemical substance
  The level of expressed mRNA in the presence of chemical substance/The level of expressed mRNA in the absence of chemical substance: 1.5
Yeast gene YLR295C, cells incubated two hours with the chemical substance, 25° C., YPD medium
  The level of expressed mRNA in the presence of chemical substance/The level of expressed mRNA in the absence of chemical substance: 1.3
Yeast gene YLR304C, cells incubated two hours with the chemical substance
  The level of expressed mRNA in the presence of chemical substance/The level of expressed mRNA in the absence of chemical substance: 1.6
Yeast gene YLR345W
  The level of expressed mRNA in the presence of chemical substance/The level of expressed mRNA in the absence of chemical substance: 2.5
Yeast gene YLR354C, cells incubated two hours with the chemical substance
  The level of expressed mRNA in the presence of chemical substance/The level of expressed mRNA in the absence of chemical substance: 1.7
Yeast gene YLR377C, cells incubated two hours with the chemical substance
  The level of expressed mRNA in the presence of chemical substance/The level of expressed mRNA in the absence of chemical substance: 0.6
Yeast gene YLR395C, cells incubated two hours with the chemical substance
  The level of expressed mRNA in the presence of chemical substance/The level of expressed mRNA in the absence of chemical substance: 1.5
Yeast gene YML087C
  The level of expressed mRNA in the presence of chemical substance/The level of expressed mRNA in the absence of chemical substance: 1.6
Yeast gene YML120C, cells incubated two hours with the chemical substance
  The level of expressed mRNA in the presence of chemical substance/The level of expressed mRNA in the absence of chemical substance: 1.3
Yeast gene YML129C, cells incubated two hours with the chemical substance
  The level of expressed mRNA in the presence of chemical substance/The level of expressed mRNA in the absence of chemical substance: 1.2
Yeast gene YMR073C, cells incubated two hours with the chemical substance
  The level of expressed mRNA in the presence of chemical substance/The level of expressed mRNA in the absence of chemical substance: 0.9
Yeast gene YMR118C
  The level of expressed mRNA in the presence of chemical substance/The level of expressed mRNA in the absence of chemical substance: 0.7
Yeast gene YMR205C, cells incubated two hours with the chemical substance
  The level of expressed mRNA in the presence of chemical substance/The level of expressed mRNA in the absence of chemical substance: 1.0
Yeast gene YMR261C, cells incubated two hours with the chemical substance
  The level of expressed mRNA in the presence of chemical substance/The level of expressed mRNA in the absence of chemical substance: 0.8
Yeast gene YMR267W, cells incubated two hours with the chemical substance, 25° C., YPD medium
  The level of expressed mRNA in the presence of chemical substance/The level of expressed mRNA in the absence of chemical substance: 1.0
Yeast gene YMR323W, cells incubated two hours with the chemical substance
  The level of expressed mRNA in the presence of chemical substance/The level of expressed mRNA in the absence of chemical substance: 2.5
Yeast gene YNL071W
  The level of expressed mRNA in the presence of chemical substance/The level of expressed mRNA in the absence of chemical substance: 1.6
Yeast gene YNL202W, cells incubated two hours with the chemical substance
  The level of expressed mRNA in the presence of chemical substance/The level of expressed mRNA in the absence of chemical substance: 1.2
Yeast gene YNL241C
  The level of expressed mRNA in the presence of chemical substance/The level of expressed mRNA in the absence of chemical substance: 3.0
Yeast gene YNL331C
  The level of expressed mRNA in the presence of chemical substance/The level of expressed mRNA in the absence of chemical substance: 21.8
Yeast gene YOL086C, cells incubated two hours with the chemical substance
  The level of expressed mRNA in the presence of chemical substance/The level of expressed mRNA in the absence of chemical substance: 2.6
Yeast gene YOL165C
  The level of expressed mRNA in the presence of chemical substance/The level of expressed mRNA in the absence of chemical substance: 17.6
Yeast gene YOR142W, cells incubated two hours with the chemical substance
  The level of expressed mRNA in the presence of chemical substance/The level of expressed mRNA in the absence of chemical substance: 1.5
Yeast gene YOR178C, cells incubated two hours with the chemical substance
  The level of expressed mRNA in the presence of chemical substance/The level of expressed mRNA in the absence of chemical substance: 4.1
Yeast gene YOR388C, cells incubated two hours with the chemical substance
  The level of expressed mRNA in the presence of chemical substance/The level of expressed mRNA in the absence of chemical substance: 1.3
Yeast gene YPL031C, cells incubated two hours with the chemical substance
  The level of expressed mRNA in the presence of chemical substance/The level of expressed mRNA in the absence of chemical substance: 1.4
Yeast gene YPL061W, cells incubated two hours with the chemical substance
  The level of expressed mRNA in the presence of chemical substance/The level of expressed mRNA in the absence of chemical substance: 1.1
Yeast gene YPL088W
  The level of expressed mRNA in the presence of chemical substance/The level of expressed mRNA in the absence of chemical substance: 1.1
Yeast gene YPL171C
  The level of expressed mRNA in the presence of chemical substance/The level of expressed mRNA in the absence of chemical substance: 37.0
Yeast gene YPL240C
  The level of expressed mRNA in the presence of chemical substance/The level of expressed mRNA in the absence of chemical substance: 1.0
Yeast gene YPL262W, cells incubated two hours with the chemical substance
  The level of expressed mRNA in the presence of chemical substance/The level of expressed mRNA in the absence of chemical substance: 1.4
Yeast gene YPL275W, cells incubated two hours with the chemical substance
  The level of expressed mRNA in the presence of chemical substance/The level of expressed mRNA in the absence of chemical substance: 0.9
Yeast gene YPL276W, cells incubated two hours with the chemical substance
  The level of expressed mRNA in the presence of chemical substance/The level of expressed mRNA in the absence of chemical substance: −0.4
Yeast gene YPR048W, cells incubated two hours with the chemical substance
  The level of expressed mRNA in the presence of chemical substance/The level of expressed mRNA in the absence of chemical substance: 1.0
Yeast gene YPR184W, cells incubated two hours with the chemical substance
  The level of expressed mRNA in the presence of chemical substance/The level of expressed mRNA in the absence of chemical substance: 3.6
